Assays:
leukocytes = conditions: in the presence of blood cells (erythrocytes, leukocytes, platelets); documents [3], [4], [6]; cited from earlier work
whole blood = assay: Cell separation on whole blood (Polymorphprep gradient), activity in separated fractions; format: cell-based, human; set-up: tested at 2 mCi (74 MBq) in 3 mL blood; conditions: for Cell separation on whole blood (activity %): Polymorphprep: fraction: Polymorphprep gradient; for Cell separation on whole blood (activity %): Erythrocytes: fraction: erythrocytes; for Cell separation on whole blood (activity %): Leukocytes: fraction: leukocytes; for Cell separation on whole blood (activity %): Medium: fraction: medium
Method: (§1) The radiopharmaceuticals of table I (2 mCi; 74 MBq) are incubated in 3 mL of a fresh sample of human blood for 10 minutes under slow shaking. The blood composition depends upon each sample taken from healthy volunteers (average composition: 1.6±0.3.10^10 Red Globules (RG) and 2.2±0.3.10^7 White Globules (WG) with 1.2±0.3.10^7 Polymorphs (57±9%) and 0.7±0.3.10^7 Lymphocytes (35±4%)]. Non-bound radioactivity is removed by successive washings (2×10 mL of RPMI culture medium 1640) of 10 minutes at 600 g. The yield of cell labeling is determined in a CAPINTEC CRC 120 activimeter. Cell viability is controlled by the Trypan blue exclusion test.
(§2) The results obtained, namely the labeling yield (Yield) and the percentages of activity in the separated fractions are given in tables 3 to 5.
In a first experiment, a separation of the blood constituents is made on a double density Polymorphprep® gradient.
Whole blood from healthy volunteers is labeled with 2 mCi of [^99mTc(ArCS3)2(ArCS2)] following the method described above. The blood constituents are then separated by the Polymorphprep® double density gradient into two separate fractions: lymphocytes and polymorphs/erythrocytes. The whole blood, diluted in 2-3 mL RPMI, is initially delicately placed on the Polymorphprep® gradient and then centrifuged (300 g, 20 min, 37° C.). […] Counting is made on each fraction using a MAXM Y07 00 367 counter in order to confirm cell constitution.

human blood = assay: Labeling of blood cells: yield of cell labeling in whole blood; format: cell-based; conditions: 2 mCi (74 MBq) in 3 mL fresh human blood, 10 minutes, after washings
Method: as §1, §2

| Compound | blood cell selectivity of labeling (leukocytes) | Cell separation on whole blood (activity %): Polymorphprep (whole blood) [%] | Cell separation on whole blood (activity %): Erythrocytes (whole blood) [%] | Cell separation on whole blood (activity %): Leukocytes (whole blood) [%] | Cell separation on whole blood (activity %): Medium (whole blood) [%] | Yield (±3%) of cell labeling (human blood) [%] |
| --- | --- | --- | --- | --- | --- | --- |
| CCON(CC)C(=S)[S][99Tc](#[N])[S]C(=S)N(CC)OCC [[^99mTcN(NOET)2], nitrurobis(N-ethoxy-N-ethyldithiocarbamato)technetium-99m] | leukocyte labeling, of granulocytes in particular |  |  |  |  |  |
| [^99mTCN(CH3)(CH2)8CS2)2] | selectivity for lymphocytes |  |  |  |  |  |
| [^99mTc(2-Me-naphCS3)2(2-Me-naphCS2)] [Example 25] |  | 4 | 10 | 85 | 1 | 96 |
| [^99mTc(2-Me-naphCS3)2(2-Me-naphCS2)] [Example 26] |  | 2 | 15 | 79 | 4 | 85 |
| [^99mTc(C6H12CS3)2CS2(C6H12CS2)] [Example 30] |  | 10 | 13 | 75 | 2 | 97 |
| [^99mTc(C6H12CS3)2CS2(C6H12CS2)] [Example 31] |  | 3 | 29 | 68 |  | 63 |

From US6469146B1, “Radiopharmaceutical products suitable for the selective labeling of lymphocytes, and their preparation” (Cis Bio International, priority 2000, dated 2002)
